Columns and labels:
[1] = Cytotoxicity against basophil derived from B-cell malignant patient by cell-titer aqueous one solution cell proliferation assay; assay type: functional; settings: Homo sapiens
[2] = molecular target: T1, Phosphatidylinositol 4,5-bisphosphate 3-kinase catalytic subunit delta isoform (Homo sapiens, UniProt O00329)
T1 sequence (O00329 whole entry): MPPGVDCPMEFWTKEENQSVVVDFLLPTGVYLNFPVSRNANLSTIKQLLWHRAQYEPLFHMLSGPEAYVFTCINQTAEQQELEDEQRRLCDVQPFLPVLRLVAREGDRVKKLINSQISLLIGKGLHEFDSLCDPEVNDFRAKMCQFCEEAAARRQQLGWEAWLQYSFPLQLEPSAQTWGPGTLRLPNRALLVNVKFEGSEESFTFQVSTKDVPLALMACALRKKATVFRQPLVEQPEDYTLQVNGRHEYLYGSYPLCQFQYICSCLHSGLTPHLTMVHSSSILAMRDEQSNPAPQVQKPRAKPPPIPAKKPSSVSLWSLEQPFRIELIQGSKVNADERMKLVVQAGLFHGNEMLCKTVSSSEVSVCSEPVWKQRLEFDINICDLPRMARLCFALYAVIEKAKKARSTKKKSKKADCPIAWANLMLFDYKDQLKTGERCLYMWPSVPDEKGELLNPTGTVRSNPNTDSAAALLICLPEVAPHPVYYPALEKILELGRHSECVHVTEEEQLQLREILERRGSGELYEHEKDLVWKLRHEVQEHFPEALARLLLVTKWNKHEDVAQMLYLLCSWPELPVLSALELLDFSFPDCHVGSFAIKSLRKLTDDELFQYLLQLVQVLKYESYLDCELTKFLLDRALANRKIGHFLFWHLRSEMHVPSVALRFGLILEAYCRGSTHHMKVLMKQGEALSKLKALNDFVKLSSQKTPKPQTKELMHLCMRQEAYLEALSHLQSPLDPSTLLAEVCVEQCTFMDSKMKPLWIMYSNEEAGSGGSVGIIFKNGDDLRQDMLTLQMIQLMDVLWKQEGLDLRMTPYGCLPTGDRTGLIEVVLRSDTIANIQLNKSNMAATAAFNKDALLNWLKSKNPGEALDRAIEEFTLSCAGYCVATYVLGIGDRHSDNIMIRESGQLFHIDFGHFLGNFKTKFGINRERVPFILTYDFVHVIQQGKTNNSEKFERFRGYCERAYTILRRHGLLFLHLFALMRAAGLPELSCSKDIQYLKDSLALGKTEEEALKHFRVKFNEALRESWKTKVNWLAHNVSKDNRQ
Description: Inhibition of PI3Kdelta (unknown origin) preincubated for 30 mins followed by insulin stimulation for 5 mins by Western blot analysis

[3] = molecular target: PI3-kinase p110-delta/p85-alpha (Homo sapiens, UniProt O00329); assay: Inhibition of N-terminal His6-tagged recombinant full length human p110delta/untagged recombinant full length human p85alpha expressed in baculovirus infected Sf21 insect cells using PIP2 as substrate after 60 mins by HTRF assay
Sequence of PI3-kinase p110-delta/p85-alpha (P27986 whole entry, one chain of several): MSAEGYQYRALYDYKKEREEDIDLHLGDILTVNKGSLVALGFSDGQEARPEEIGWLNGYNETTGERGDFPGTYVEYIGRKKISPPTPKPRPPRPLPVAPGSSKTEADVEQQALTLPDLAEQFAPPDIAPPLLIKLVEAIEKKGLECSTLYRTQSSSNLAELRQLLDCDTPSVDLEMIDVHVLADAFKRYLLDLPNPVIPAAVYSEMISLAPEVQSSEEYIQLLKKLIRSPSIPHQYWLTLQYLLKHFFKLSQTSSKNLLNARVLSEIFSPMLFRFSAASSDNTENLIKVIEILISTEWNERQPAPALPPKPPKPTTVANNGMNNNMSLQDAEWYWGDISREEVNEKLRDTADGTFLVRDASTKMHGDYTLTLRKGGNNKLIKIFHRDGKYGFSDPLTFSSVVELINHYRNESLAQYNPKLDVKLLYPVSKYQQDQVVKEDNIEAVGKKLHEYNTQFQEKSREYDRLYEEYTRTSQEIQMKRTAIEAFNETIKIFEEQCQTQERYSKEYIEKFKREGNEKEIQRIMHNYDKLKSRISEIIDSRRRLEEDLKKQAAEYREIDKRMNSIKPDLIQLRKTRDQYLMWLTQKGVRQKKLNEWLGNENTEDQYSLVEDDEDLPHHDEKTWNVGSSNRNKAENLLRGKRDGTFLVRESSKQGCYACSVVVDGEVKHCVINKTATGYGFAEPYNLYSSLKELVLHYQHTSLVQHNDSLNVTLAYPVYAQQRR

Homo sapiens [4] = species: Homo sapiens; assay: Selectivity ratio of IC50 for N-terminal His6-tagged recombiant human full length p120gamma IC50 for N-terminal His6-tagged recombinant full length human p110delta/untagged recombinant full length human p85alpha
[5] = molecular target: T1, Phosphatidylinositol 4,5-bisphosphate 3-kinase catalytic subunit delta isoform; assay: Inhibition of PI3Kdelta (unknown origin)
[6] = molecular target: Casein kinase I isoform epsilon (Homo sapiens) (UniProt P49674); assay: Inhibition of casein kinase 1 epsilon (unknown origin) at 1 uM relative to control
Sequence of Casein kinase I isoform epsilon (Homo sapiens) (P49674 whole entry, looked up, canonical isoform): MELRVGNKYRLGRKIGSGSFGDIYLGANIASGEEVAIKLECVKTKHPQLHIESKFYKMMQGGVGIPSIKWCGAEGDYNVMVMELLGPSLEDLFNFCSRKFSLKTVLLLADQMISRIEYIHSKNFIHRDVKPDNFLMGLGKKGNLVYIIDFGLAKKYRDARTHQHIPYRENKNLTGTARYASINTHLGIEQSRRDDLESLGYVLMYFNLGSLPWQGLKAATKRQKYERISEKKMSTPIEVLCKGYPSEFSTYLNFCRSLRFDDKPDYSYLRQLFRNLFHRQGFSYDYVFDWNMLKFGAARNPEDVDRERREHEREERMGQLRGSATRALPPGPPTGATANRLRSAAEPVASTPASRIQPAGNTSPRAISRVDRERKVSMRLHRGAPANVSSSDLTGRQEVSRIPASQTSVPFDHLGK

[7] = molecular target: T2, Phosphatidylinositol 4,5-bisphosphate 3-kinase catalytic subunit gamma isoform (Homo sapiens, UniProt P48736); assay: Inhibition of PI3Kgamma (unknown origin) using PIP2 as substrate preincubated for 10 mins followed by ATP addition measured after 30 mins by HTRF assay
T2 sequence (P48736 whole entry, canonical isoform): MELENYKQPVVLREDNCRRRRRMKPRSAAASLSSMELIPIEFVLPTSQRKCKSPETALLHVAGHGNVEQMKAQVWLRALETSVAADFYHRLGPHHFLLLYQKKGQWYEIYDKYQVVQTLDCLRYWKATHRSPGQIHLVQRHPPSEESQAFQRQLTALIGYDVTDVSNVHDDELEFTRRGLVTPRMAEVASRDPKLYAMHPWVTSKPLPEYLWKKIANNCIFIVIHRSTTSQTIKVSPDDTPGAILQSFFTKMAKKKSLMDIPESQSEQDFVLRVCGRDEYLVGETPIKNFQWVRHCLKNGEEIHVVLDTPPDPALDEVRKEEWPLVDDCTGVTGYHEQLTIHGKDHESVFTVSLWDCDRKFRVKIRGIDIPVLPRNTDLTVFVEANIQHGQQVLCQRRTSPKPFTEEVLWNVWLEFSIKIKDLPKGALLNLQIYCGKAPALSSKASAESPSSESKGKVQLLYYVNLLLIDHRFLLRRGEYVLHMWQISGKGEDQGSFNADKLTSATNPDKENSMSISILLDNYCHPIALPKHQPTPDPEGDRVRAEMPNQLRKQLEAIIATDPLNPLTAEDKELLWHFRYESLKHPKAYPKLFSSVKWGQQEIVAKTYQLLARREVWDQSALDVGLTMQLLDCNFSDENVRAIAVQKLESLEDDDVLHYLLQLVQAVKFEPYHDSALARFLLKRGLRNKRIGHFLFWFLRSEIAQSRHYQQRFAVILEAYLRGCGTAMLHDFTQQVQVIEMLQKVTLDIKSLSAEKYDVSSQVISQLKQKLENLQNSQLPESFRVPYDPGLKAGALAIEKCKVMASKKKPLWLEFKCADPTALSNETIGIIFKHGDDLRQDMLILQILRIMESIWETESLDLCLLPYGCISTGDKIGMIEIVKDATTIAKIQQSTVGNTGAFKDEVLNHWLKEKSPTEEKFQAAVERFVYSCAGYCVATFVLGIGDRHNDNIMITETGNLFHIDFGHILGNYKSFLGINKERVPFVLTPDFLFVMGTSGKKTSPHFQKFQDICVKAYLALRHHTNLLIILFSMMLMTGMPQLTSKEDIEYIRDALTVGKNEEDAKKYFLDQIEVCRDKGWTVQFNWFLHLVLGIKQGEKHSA

[8] = molecular target: T2, Phosphatidylinositol 4,5-bisphosphate 3-kinase catalytic subunit gamma isoform; assay: Inhibition of PI3Kgamma in human Neutrophil cells; assay type: cell-based
Homo sapiens [9] = species: Homo sapiens; assay: Selectivity ratio of IC50 for PI3Kalpha in human Neutrophil cells to IC50 for PI3Kdelta in human Neutrophil cells; assay type: cell-based
Neutrophil = assay: Cytotoxicity against in human Neutrophil cells; assay type: cell-based
Homo sapiens [10] = species: Homo sapiens; assay: Selectivity ratio of IC50 for PI3Kbeta in human Neutrophil cells to IC50 for PI3Kdelta in human Neutrophil cells; assay type: cell-based
[11] = molecular target: T1, Phosphatidylinositol 4,5-bisphosphate 3-kinase catalytic subunit delta isoform; assay: Inhibition of PI3Kdelta in human Neutrophil cells; assay type: cell-based
[12] = molecular target: T2, Phosphatidylinositol 4,5-bisphosphate 3-kinase catalytic subunit gamma isoform; assay: Inhibition of PI3Kgamma (unknown origin)
Raji = assay: Cytotoxicity against in human Raji cells; assay type: functional, cell-based
[13] = molecular target: T2, Phosphatidylinositol 4,5-bisphosphate 3-kinase catalytic subunit gamma isoform; assay: Inhibition of GST-tagged PI3Kgamma (unknown origin) using PIP2 as substrate preincubated for 2 hrs followed by ATP addition measured after 30 mins by TR-FRET assay
[14] = Cytotoxicity against human basophil cells after 24 hrs by MTT assay; assay type: cell-based
B cell = assay: Cytotoxicity against human B cells; assay type: functional, cell-based
[15] = molecular target: T1, Phosphatidylinositol 4,5-bisphosphate 3-kinase catalytic subunit delta isoform; assay: Inhibition of PI3Kdelta in human Pfeiffer cells; assay type: cell-based
Pfeiffer = assay: Cytotoxicity against human Pfeiffer cells; assay type: functional, cell-based

CC[C@H](Nc1ncnc2[nH]cnc12)c1nc2cccc(F)c2c(=O)n1-c1ccccc1 [IDELALISIB]
IC50 [1]: 846 nM

C[C@H](Nc1ncnc(N)c1-c1nnn[nH]1)c1nn2cccc2c(=O)n1-c1ccccc1
IC50 [2]: 0.2 nM

CCn1c(-c2cnc(C)nc2)nc2c(NC3CCc4nc(Cl)n(C5CC5)c4C3)ncnc21 (stereo not drawn)
IC50 [3]: < 1 nM

Cc1nc(NC(=O)CNC(=O)c2ccccc2)sc1-c1cnc(Cl)c(NS(=O)(=O)c2ccccc2)c1
Ratio IC50 (Homo sapiens [4]): 71 | IC50 [5]: 0.6 nM

CC(C)Oc1ccc(-c2nn([C@@H](C)c3oc4ccc(F)cc4c(=O)c3-c3cccc(F)c3)c3ncnc(N)c23)cc1F [UMBRALISIB]
inhibition [6]: > 60% | IC50 [7]: > 120 nM

[O-][n+]1cccc(-c2nc3c(Cl)cccc3cc2[C@@H](Nc2ncnc3cccnc23)C(F)(F)F)c1 [SELETALISIB]
IC50 [8]: 280 nM | Ratio IC50 (Homo sapiens [9]): 300 | IC50 (Neutrophil): 16 nM | Ratio IC50 (Homo sapiens [10]): 180 | IC50 [11]: 12 nM

CC(c1cc2ccccn2c1-c1ccc(=O)n(CCN2CCOCC2)n1)n1nc(-c2cc(O)cc(F)c2)c2c(N)ncnc21 (stereo not drawn)
IC50 [12]: < 10 nM | IC50 [5]: 10 to 1000 nM

CCn1c(-c2ccc(C(F)(F)F)nc2)nc2c(NC3CCc4nnc(C(C)C)n4C3)ncnc21 (stereo not drawn)
IC50 [3]: < 1 nM

CC(Nc1ncnc2[nH]cnc12)c1cc2ccccn2c(=O)c1-c1ccccc1 (stereo not drawn)
IC50 [5]: 0.1 to 10 nM

Cc1ccn2nc([C@H](C)Nc3ncnc4[nH]cc(-c5ccc(O)c(CN6CCC(N(C)C)CC6)c5)c34)n(-c3ccccc3)c(=O)c12
IC50 [2]: 0.43 nM

CCC(=O)N1CC[C@H](Oc2ncnc3c2nc(-c2cnn(CC)c2C)n3C)C1
IC50 [3]: < 1 nM

C[C@H](Nc1ncnc(N)c1C#Cc1ccc(F)cn1)c1nc2c(F)ccc(F)c2c(=O)n1-c1cc(F)cc(F)c1
IC50 [2]: < 100 nM

Cc1nc(N)nc(N[C@@H](C)c2nc3ccn(C)c3cc2N2CCNCC2)c1C#N
IC50 [5]: 0.7 nM

Cn1c(C(=O)NCC2CC2)nc2c(N3CCC(n4c(=O)[nH]c5ccccc54)CC3)ncnc21
IC50 [3]: 7.5 nM | Ratio IC50 (Homo sapiens [4]): > 13

C[C@H](Nc1ncnc2nc[nH]c12)c1cc2cccc(Cl)c2c(=O)n1-c1ccccc1 [DUVELISIB]
IC50 (Raji): 0.36 nM

C[C@H](Nc1ncnc2[nH]cnc12)c1nc2ccc(F)cc2c(=O)n1-c1ccccc1 [ACALISIB]
IC50 [13]: 3000 nM | IC50 [14]: 19 nM

CCOc1c([C@H](C)n2nc(C)c3c(N)ncnc32)cc(Cl)c(F)c1[C@@H]1CNC(=O)C1 [PARSACLISIB]
IC50 (B cell): 0.15 nM

Cc1c(Cl)cc(C(C)Nc2ncnc3nc[nH]c23)c(-c2cccc(F)c2)c1C(N)=O (stereo not drawn)
IC50 [15]: < 50 nM | IC50 (Pfeiffer): < 50 nM

Source: ChEMBL document CHEMBL4350952, “Evolution of PI3Kγ and δ Inhibitors for Inflammatory and Autoimmune Diseases” (J Med Chem, 2019)
